{"source": "patent US12290601B2", "about": "“Pharmaceutical composition comprising axitinib” (Synthon B.V., priority 2019, dated 2025)", "key": {"[1]": {"details": "cited from earlier work"}, "[2]": {"details": "among polymorphic forms; cited from earlier work"}, "[3]": {"assay": "Photo-stability of crystalline forms", "assay_type": "physicochemical", "details": "versus form XLI"}, "[4]": {"assay": "Aqueous solubility", "assay_type": "physicochemical", "details": "versus form XLI"}}, "note": "Where two headings read alike, the source gives them in different places."}
{"smiles": "CNC(=O)c1ccccc1Sc1ccc2c(/C=C/c3ccccn3)n[nH]c2c1", "note": "[Axitinib, N-methyl-2-({3-[(E)-2-pyridin-2-ylethenyl]-1H-indazol-6-yl}sulfanyl)benzamide]", "values": [{"measurement": "solubility", "setting": "[1]", "value": "low solubility"}, {"measurement": "solubility", "setting": "[1]; gastric, pH 1.7", "value": "highly soluble"}]}
{"smiles": "CNC(=O)c1ccccc1Sc1ccc2c(/C=C/c3ccccn3)n[nH]c2c1", "note": "[Form XLI, N-methyl-2-({3-[(E)-2-pyridin-2-ylethenyl]-1H-indazol-6-yl}sulfanyl)benzamide]", "values": [{"measurement": "thermodynamic stability", "setting": "[2]", "value": "most thermodynamically stable"}]}
{"smiles": "CNC(=O)c1ccccc1Sc1ccc2c(/C=C/c3ccccn3)n[nH]c2c1", "note": "[axitinib form IV, N-methyl-2-({3-[(E)-2-pyridin-2-ylethenyl]-1H-indazol-6-yl}sulfanyl)benzamide]", "values": [{"measurement": "photo-stability compared to crystalline axitinib form XLI", "setting": "[3]", "value": "less photo-stable"}, {"measurement": "aqueous solubility, fold higher compared to crystalline axitinib form XLI", "setting": "[4]", "value": "2-3 fold"}]}
